Assay results as given in patent US20210113505A1, “METHODS OF TREATING HAIR RELATED CONDITIONS” (Nogra Pharma Limited, priority 2012, published 2021).
“Also recorded” adds a separate entry of the source.

What was measured:
Format in all cases: cell-based
K19 expression = assay: K19 quantitative immunohistochemistry in organ-cultured human scalp hair follicles; details: human scalp HF organ culture; for number of K19-positive cells relative to control: cells in the ORS
Protocol: (§1) Normal human scalp skin was obtained from 6 women undergoing routine face-lift surgery after informed consent. All experiments were performed according to Helsinki guidelines, with appropriate ethics committee approval.
(§2) Normally pigmented anagen VI hair follicles (HFs) (grey/white HFs were excluded from the study) were microdissected from normal human scalp skin and organ cultured following the Philpott model. Compound A or vehicle was administered once for each change of medium (i.e. every 48 h/72 h).
A previously described protocol was used to investigate K19 expression (Kloepper et al., 2008). Briefly, acetone-fixed cryosections were pre-treated with goat serum (10% in Tris-buffered saline, Dako). The sections were incubated first with primary antibodies against K19 (mouse anti-human: K19-1:10; overnight, at 4° C.; PROGEN, Heidelberg, Germany;) and then with FITC-labeled goat anti-mouse (1:200 in TBS, for 45 min, RT, Jackson ImmunoResearch) immunoglobulins as secondary antibodies. Counterstaining was performed with DAPI (Boehringer Mannheim, Mannheim, Germany). The intensity of this immunostaining was quantified by ImageJ software (National Institutes of Health). The staining intensity of defined reference regions in the HF was measured and compared between control and Compound A-treated groups. The percentage of K19-positive cells in comparison to the total amount of cells in the ORS was calculated.
Statistical analysis was performed using a two-tailed Student's t-test for unpaired samples. For meta-analysis purposes, a total of six assays (each with HFs from a different female individual) were run. […] In order to avoid data distortion by individual experiments, rigid exclusion criteria were defined that allowed to exclude one individual experiment (out of 5-6) per read-out parameter. Since these exclusion criteria differed for each study parameter, different experiments (i.e. one out of 6, and one out of 5 in the case of keratin 19 analysis) were excluded for each assay parameter. […]

[1] = tested on: human scalp hair follicles; assay: LDH measurement in supernatant of hair follicle organ culture (cytotoxicity); details: for LDH activity in the supernatant: 0.1 mM dose, day 6, pooled data
Protocol: (§3) Details regarding tissue specimen origin used in the present example are as described in Example 2 above.
LDH activity in the supernatant can serve as an indicator of cytotoxicity and was measured following the manufacturer's instructions (Cytotoxicity Detection Kit; Roche, Mannheim, Germany). The absorbance of the samples was measured at 490 nm using an ELISA plate-reader.
(§4) To evaluate apoptotic cells in colocalization with a proliferation marker Ki-67, a Ki-67/terminal dUTP nick-end labeling (TUNEL) double-staining method was used. Cryostat sections were fixed in paraformaldehyde and ethanol-acetic acid (2:1) and labeled with a digoxigenin-deoxy-UTP (ApopTag fluorescein in situ apoptosis detection kit; Intergen, Purchase, N.Y.) in the presence of terminal deoxynucleotidyl transferase, followed by incubation with a mouse anti-Ki-67 antiserum (1:20 in PBS overnight at 4 C; Dako, Glostrup, Denmark). TUNEL-positive cells were visualized by an antidigoxigenin fluorescein isothiocyanate-conjugated antibody (ApopTag kit), whereas Ki-67 was detected by a rhodamine-labeled goat antimouse antibody (Jackson ImmunoResearch, West Grove, Pa.). Negative controls were performed by omitting terminal deoxynucleotidyl transferase and the Ki-67 antibody. Counterstaining was performed with 4′,6-diamidino-2-phenylindole (DAPI) (Roche Molecular Biochemicals GmbH, Mannheim, Germany). Quantitative immunohistomorphometry was performed; Ki-67-, TUNEL-, or DAPI-positive cells were counted in a previously defined reference region of the HF matrix, and the percentage of Ki-67/TUNEL-positive cells were determined. Statistical analysis was performed using a two-tailed Student's t-test for unpaired samples. For meta-analysis purposes, a total of six assays (each with HFs from a different female individual) were run. In order to avoid data distortion by individual experiments, rigid exclusion criteria were defined that allowed to exclude one individual experiment (out of 5-6) per read-out parameter. […]

[2] = tested on: human scalp hair follicles; assay: Hair shaft elongation of organ-cultured hair follicles
Protocol: as §3
Hair shaft length measurements of HFs were performed on individual HFs using a Zeiss inverted binocular microscope with an eyepiece measuring graticule.
as §4, with “parameter. Since these exclusion criteria differed for each study parameter, different experiments (i.e. one out of 6) were excluded for each assay parameter.” for “parameter.”

keratin K15 expression = assay: K15 quantitative immunohistochemistry in organ-cultured human scalp hair follicles; details: for Keratin-15 immunoreactivity: all concentrations tested, human anagen VI scalp HF organ culture, vs vehicle
Protocol: as §1, §2
To investigate keratin K15 expression, the tyramide signal amplification method was used as previously described (Kloepper et al., 2008). Briefly, acetone fixed cryosections were washed three times for 5 min using TNT (Tris-HCL NaCl Tween) buffer (0.1 mol/l Tris-HCl, pH 7.5; containing 0.15 mol/l NaCl and 0.05% Tween 20). Next, horseradish peroxidase was blocked by washing with 3% H2O2 in phosphate-buffered saline (PBS) for 15 min. Preincubation was performed with the incubation of avidin and biotin for 15 min and 5% goat normal serum in TNT for 30 min with washing steps in between. Mouse anti-human K15 (clone LHK15, Chemicon, Billerica, USA) was diluted in TNT and incubated overnight at 4° C. followed by a biotinylated secondary antibody goat anti-mouse (1:200 in TNT) for 45 min at RT. Next, streptavidin horseradish peroxidase (TSA kit; Perkin-Elmer, Boston, Mass., USA) was administered (1:100 in TNT) for 30 min at RT. […] The intensity of the immunostaining was quantified by ImageJ software (National Institutes of Health). The staining intensity of defined reference regions in the HF was measured and compared between control and N Compound A-treated groups. The percentage of K15-positive cells in comparison to the total amount of cells in the ORS was calculated.
Statistical analysis was performed using a two-tailed Student's t-test for unpaired samples. […] In order to avoid data distortion by individual experiments, rigid exclusion criteria were defined that allowed to exclude one individual experiment (out of 5-6) per read-out parameter. […]

[3] = tested on: human scalp hair follicles; assay: HF cycle staging (anagen/catagen) of organ-cultured hair follicles; details: all concentrations, pooled data
Protocol: as §3
HF cycle staging was carried out according to previously defined morphological criteria, and the percentage of HFs in anagen and early, mid, or late catagen was determined.
To evaluate apoptotic cells in colocalization with a proliferation marker Ki-67, a Ki-67/terminal dUTP nick-end labeling (TUNEL) double-staining method was used. […] TUNEL-positive cells were visualized by an antidigoxigenin fluorescein isothiocyanate-conjugated antibody (ApopTag kit), whereas Ki-67 was detected by a rhodamine-labeled goat antimouse antibody (Jackson ImmunoResearch, West Grove, Pa.). […] Quantitative immunohistomorphometry was performed; Ki-67-, TUNEL-, or DAPI-positive cells were counted in a previously defined reference region of the HF matrix, and the percentage of Ki-67/TUNEL-positive cells were determined. […] In order to avoid data distortion by individual experiments, rigid exclusion criteria were defined that allowed to exclude one individual experiment (out of 5-6) per read-out parameter. […]

[4] = listed as N-acetyl-(R)-(−)-3-(4-aminophenyl)-2-methoxypropionic acid

CO[C@H](Cc1ccc(NC(C)=O)cc1)C(=O)O [Compound A, N-acetyl-(R)-(−)-3-(4-aminophenyl)-2-methoxypropionic acid]
Keratin 19 immunoreactivity (K19 expression; all concentrations tested, vs vehicle): strongly stimulated
number of K19-positive cells relative to control (K19 expression): stimulating effect
number of K19-positive cells relative to control (K19 expression; [4]): increased numbers
LDH activity in the supernatant [1]: slight increase
LDH activity in the supernatant [1, 4]: increase
Compound-associated HF toxicity ([1]; under assay conditions, from LDH activity): very low, if any
hair shaft elongation ([2]; high dose (1 mM), day 6, pooled data): slightly, but significantly, inhibited; also recorded: inhibits
hair shaft elongation ([2]; high dose (1 mM), day 6, pooled data, listed as N-acetyl-(R)-(−)-3-(4-aminophenyl)-2-methoxypropionic acid): inhibition
hair shaft elongation ([2]; lower concentrations (below 1 mM)): did not have an effect
Keratin-15 immunoreactivity (keratin K15 expression): strongly stimulated
Keratin-15 immunoreactivity (keratin K15 expression; [4]): stimulation
number of K15-positive cells (keratin K15 expression; human scalp HF organ culture, cells in the ORS): did not increase
hair cycle effect (catagen induction) [3]: induced catagen; also recorded: catagen-inducing effect
hair cycle effect (catagen induction) [3, 4]: trend toward catagen
